Several values for one entry are separate records, joined by “and”; a condition that tells them apart may be missing. Equal values may be shown once.
Test system: MS patients in the relapsing and remitting course of the disease (RRMS)
Test: Phase 2 trial: number of new gadolinium contrast-enhancing (CE) T1-weighted lesions on monthly MRI over 6 months
Assay type: in vivo, human
Conditions: for LSMean cumulative number of new CE lesions over 6 months / mean cumulative number of new CE lesions over 6 months: n=70
Experimental: A Phase 2, randomized, double-blind, placebo-controlled, multi-center clinical trial of CHS-131 for the treatment of multiple sclerosis (MS) was conducted. The primary endpoint was the number of new gadolinium contrast-enhancing (CE) T1-weighted lesions on monthly MRI over 6 months.
The study enrolled MS patients in the relapsing and remitting course of the disease (RRMS) who had been diagnosed within ≤3 years of enrollment. Patients had to be treatment-naïve, have ≥1 gadolinium-positive lesion within 12 months of enrollment, and have an Expanded Disability Status Score (EDSS) of 0-6 at screening.
Part 1 was a double-blind, parallel-group, 6-month study. Patients were randomized to oral CHS-131 at 3 mg or 1 mg or placebo in a 1:1:1 ratio at 21 sites in Russia. Monthly MRIs were read in a blinded fashion at the Buffalo Neuroimaging and Analysis Center, Buffalo, N.Y., USA. Part 2 is an open label, 6-month, safety extension study, in which all subjects transition to 1 mg CHS-131 daily, to evaluate clinical response, CE lesions on MM, and safety.
The mean cumulative number of new CE lesions over 6 months was 4.2 (LSMean 3.10) for 3 mg CHS131 (n=70), 7.6 (LSMean 5.15) for 1 mg CHS131 (n=70), and 7.8 (LSMean 6.49) for placebo (n=69). The response was dose-dependent. […] FIG. 2 provides a graphical representation of these LSMean data.
Upon completion of the six month trial period described in Example 1, the number of new gadolinium CE T1-weighted lesions was evaluated in the entire study population and separately in men and women.
The ratios of changes in lesions were evaluated by a least square means (LSMeans) analysis. In such an analysis, multiple factors including both categorical (e.g. treatment, center, gender) and continuous covariates (e.g. baseline measures) can be accounted for.

## O=S(=O)(Nc1cc(Cl)c(Oc2cnc3ccccc3c2)c(Cl)c1)c1ccc(Cl)cc1Cl [CHS-131]
1 mg, 6 months
  incidence of new CE lesions lower than with placebo: 21%
1 mg
  LSMean cumulative number of new CE lesions over 6 months: 5.15
  mean cumulative number of new CE lesions over 6 months: 7.6
3 mg
  LSMean cumulative number of new CE lesions over 6 months: 3.10
  mean cumulative number of new CE lesions over 6 months: 4.2
3 mg, whole population, 6 months, p=0.003
  reduction of incidence of new CE lesions versus placebo: 52% and 53%
Female, 1 mg
  LSMean # of Lesions (new gadolinium CE T1-weighted, 6 months): 5.48
  Mean # of Lesions (new gadolinium CE T1-weighted, 6 months, observed data): 8.01
  Percent Change from Placebo (observed mean # of lesions): 3.2%
Female, 1 mg, p 0.8481
  Percent Change from Placebo (inverse of ratio of LSMeans treatment:placebo): −5% (0.8481)
Female, 3 mg
  LSMean # of Lesions (new gadolinium CE T1-weighted, 6 months): 4.18
  Mean # of Lesions (new gadolinium CE T1-weighted, 6 months, observed data): 4.97
  Percent Change from Placebo (observed mean # of lesions): −36.0%
Female, 3 mg, p 0.2516
  Percent Change from Placebo (inverse of ratio of LSMeans treatment:placebo): −28% (0.2516)
Male & Female, 1 mg
  LSMean # of Lesions (new gadolinium CE T1-weighted, 6 months): 5.15
  Mean # of Lesions (new gadolinium CE T1-weighted, 6 months, observed data): 7.19
  Percent Change from Placebo (observed mean # of lesions): −9.6%
Male & Female, 1 mg, p 0.3049
  Percent Change from Placebo (inverse of ratio of LSMeans treatment:placebo): −21% (0.3049)
Male & Female, 3 mg
  LSMean # of Lesions (new gadolinium CE T1-weighted, 6 months): 3.10
  Mean # of Lesions (new gadolinium CE T1-weighted, 6 months, observed data): 4.51
  Percent Change from Placebo (observed mean # of lesions): −43.3%
Male & Female, 3 mg, p 0.0016
  Percent Change from Placebo (inverse of ratio of LSMeans treatment:placebo): −52% (0.0016)
Male, 1 mg
  LSMean # of Lesions (new gadolinium CE T1-weighted, 6 months): 4.31
  Mean # of Lesions (new gadolinium CE T1-weighted, 6 months, observed data): 5.93
  Percent Change from Placebo (observed mean # of lesions): −30.4%
Male, 1 mg, p 0.0827
  Percent Change from Placebo (inverse of ratio of LSMeans treatment:placebo): −48% (0.0827)
Male, 3 mg
  LSMean # of Lesions (new gadolinium CE T1-weighted, 6 months): 2.42
  Mean # of Lesions (new gadolinium CE T1-weighted, 6 months, observed data): 3.81
  Percent Change from Placebo (observed mean # of lesions): −55.4%
Male, 3 mg, p 0.0012
  Percent Change from Placebo (inverse of ratio of LSMeans treatment:placebo): −71% (0.0012)
men, 3 mg per day
  reduction of new T1 lesions in the study analysis: 71%

— patent publication US20190224186A1, “TREATMENT OF MULTIPLE SCLEROSIS WITH CHS-131” (InteKrin Therapeutics, Inc., priority 2016, published 2019)
